Measured values published in patent US6251882A, “Alkyl ketones as potent anti-cancer agents” (Parker Hughes Institute, priority 1999, dated 2001).
pIC50: −log10 of the molar value.

Legend:
Type in all cases: cell-based, human
Molt-3 (T-lineage ALL) = test: MTT cytotoxicity assay, Molt-3; conditions: MTT, 24-36 hours at 37° C., 0.1 to 250 μM
Procedure: (§1) Cytotoxicity of various compounds against tumor cells was performed using the MTT (3-[4,5-[…]]-2,5-diphenyl tetrazolium bromide) assay (Boehringer Mannheim Corp., Indianapolis, Ind.). Unless otherwise specified, all cell lines were obtained from the American Type Culture Collection (ATCC). Briefly, exponentially growing cells were seeded into a 96-well plate at a density of 2.5×10^4 cells/well and incubated for 36 hours at 37° C. prior to drug exposure. On the day of treatment, culture medium was carefully aspirated from the wells and replaced with fresh medium containing the indicated compound at concentrations ranging from 0.1 to 250 μM. Triplicate wells were used for each treatment.
Human leukemic cell lines (NALM-6, MOLT-3) glioblastoma cells (U373) and human breast tumor cell lines (BT20 and MDA-MB-231) were obtained from the American Type Culture Collection and maintained as a continuous cell line in Dulbecco's modified Eagles's medium supplemented with 10% fetal bovine serum and antibiotics.
The cells were incubated with the various compounds for 24-36 hours at 37° C. in a humidified 5% CO2 atmosphere. To each well, 10 μl of MTT (0.5 mg/ml final concentration) was added and the plates were incubated at 37° C. for 4 hours to allow MTT to form formazan crystals by reacting with metabolically active cells. The formazan crystals were solubilized overnight at 37° C. in a solution containing 10% SDS in 0.01 M HCl. The absorbence of each well was measured in a microplate reader (Labsystems) at 540 nm and a reference wavelength of […]. To translate the OD540 values into the number of live cells in each well, the OD540 values were compared to those on standard OD540 --versus--cell number curves generated for each cell line. The percent survival was calculated using the formula: [formula]
The IC50 values were calculated by non-linear regression analysis and are shown below in Tables 1-6.

[1] = tested on: MDA-MB-231 breast cancer cells; test: Cell invasion assay (Matrigel-coated Boyden chambers), MDA-MB-231; conditions: through Matrigel matrix, 2.5 μM to 25 μM, 48 hours (FIG. 4)
Procedure: The in vitro invasiveness of MDA-MB-231 breast cancer cells and U373 glioblastoma cells was assayed using a previously published method which employs Matrigel-coated Costar 24-well transwell cell culture chambers ("Boyden chambers") with 8.0-μm-pore polycarbonate filter inserts (Albini, et al., 1987, Cancer Res., 47:3239-3245). The chamber filters were coated with 50 μg/ml of Matrigel matrix, incubated overnight at room temperature under a laminar flow hood and stored at 4° C. Matrigel matrix is made up of several components of the extracellular matrix (ECM), including collagens, laminin and proteo-glycans.
On the day of the experiment, the coated inserts were rehydrated with 0.5 ml serum-free DMEM containing 0.1% bovine serum albumin for 1-2 hours. […] The cells were trypsinized, washed twice with serum-free DMEM containing BSA, counted and resuspended at 1×10^5 cells/ml. […] The invasive cells that migrated to the lower side of the filter were fixed, stained with Hema-3 solutions and counted under microscope. Five to 10 random fields per filter were counted to determine the mean (SE) values for the invasive fraction. The invasive fractions of cells treated with HI-131 were compared to those of DMSO treated control cells and the percent invading relative to the control was determined using the formula: [formula]
Each treatment condition was evaluated in duplicate in 3 independent experiments. […]

NALM-6 cells = test: Apoptosis induction, NALM-6 cells (in situ TUNNEL, confocal microscopy)
Procedure: (§2) The ability of HI-131 to induce apoptosis cells was evaluated in human leukemia in NALM-6 cells and primary leukemic cells from 2 patients. Cells were treated with 50 μM compound HI-131 for 24 hours. After incubation, the cells were harvested and analyzed for apoptosis by in situ TUNNEL analysis and confocal laser scanning microscopy as described in Sudbeck et al., 1999, Clin Cancer Res., 5:1589-82. Controls were treated with vehicle alone.
(§3) Induction of apoptosis was further evaluated in primary leukemic cells and established NALM-6 and MOLT-3 cell lines following treatment with HI-131.

primary leukemic cells = test: Apoptosis induction, primary leukemic cells (in situ TUNNEL, confocal microscopy)
Procedure: as §2, §3

primary leukemia cells = test: MTT cytotoxicity in primary cancer cells from six children with leukemia; conditions: 0 to 50 μM, all six patients
Procedure: as §1
The cells were incubated with the various compounds for 24-36 hours at 37° C. in a humidified 5% CO2 atmosphere. […] The absorbence of each well was measured in a microplate reader (Labsystems) at 540 nm and a reference wavelength of 690 um. […] The percent survival was calculated using the formula: [formula]
The cytotoxicity of HI-131 against primary cancer cells was evaluated in leukemia cells taken from six children (FIG. 1A), using the MTT assay described for Example 3. […] Percent survival was calculated as described for Example 3 and plotted against the HI-131 concentration used in the experiment. […]

With `CCCCCCCCCCCCSC[C@H](NC(C)=O)C(=O)CCl` [HI-131, N-Ac-S-dodecyl-Cys chloromethyl ketone] the pIC50 (Molt-3 (T-lineage ALL)) was 5.64, the “inhibition of invasion, MDA-MB-231” value [1] was “inhibited the invasion” and the “apoptosis induction (TUNNEL/confocal), NALM-6” value (NALM-6 cells; 50 μM, 24 hours) was “greatly induced apoptosis”. The fold induction at 50 µM (NALM-6 cells; Homo sapiens, NALM-6, 24 h, vs vehicle control (FIG. 3)) was roughly 20, the “apoptosis induction (TUNNEL/confocal), primary leukemic cells” value (primary leukemic cells; 50 μM, 24 hours, 2 patients) was “greatly induced apoptosis” and the fold induction at 50 µM (primary leukemic cells; Homo sapiens, 24 h, typical, vs vehicle control (FIG. 3)) was roughly 4. For the same compound, the “rate of apoptosis, primary leukemic cell samples” value (primary leukemic cells; all but one of the samples (FIG. 3)) was “increased dramatically” and the “cytotoxic effect in primary cancer cells” value (primary leukemia cells) was “dose dependent cytotoxic effect”.
